Earlier results, collected in patent US10993442B2, “Ultra-high loading glyphosate concentrate” (STEPAN COMPANY, priority 2008, dated 2021).
Where a name gives a salt, the structure may show the parent alone.

Conditions: for Solubility in water, glyphosate acid equivalent: as acid equivalent; for Solubility in water: as salt

SMILES | Solubility in water, glyphosate acid equivalent | Solubility in water | Water solubility (free acid form)
O=C(O)CNCP(=O)(O)O [glyphosate potassium salt] | about 50 % by weight glyphosate acid equivalent (a.e.) | about 61 % by weight | –
O=C(O)CNCP(=O)(O)O [glyphosate, N-phosphonomethylglycine] | – | – | low
CC(C)N.O=C(O)CNCP(=O)(O)O [isopropylamine salt of glyphosate] | about 47 % by weight glyphosate acid equivalent (a.e.) | about 63 % by weight | –
